pIC50: −log10 of the molar value.
How the values were obtained:
[1] = test system: Sporothrix schenkii B62482; experiment: Antifungal activity in vitro (resazurin susceptibility screen), Inf. A; assay type: cell-based; details: Sporothrix, B62482, Sporothrix schenkii B62482; 27 °C, 4 days, resa time 24 hours; highest in-test concentration 64 μM; read-out: Inf. A pIC50 (converted)
Procedure, shortened: (§1)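 Inoculum: 10^3 cfu/well from cryostocks diluted 1/1000 immediately prior to use. Drug plates were pre-spotted serial dilutions stored dark at 4 °C, ≤2 wk. Controls: fungus without antifungal (100%) and RPMI-MOPS blank (0%).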

[2] = test system: Cryptococcus neoformans B66663; experiment: Antifungal activity in vitro (resazurin susceptibility screen), Inf. F; assay type: cell-based; details: Cryptococcus neoformans, B66663, Cryptococcus neoformans B66663; 37 °C, 24 hours, resa time 4 hours; read-out: Inf. F pIC50 (converted)
Procedure, shortened: as §1

[3] = Liver metabolic stability assay, gpLM; assay type: in vitro ADME, guinea pig; details: guinea pig microsomes, 1 mg protein/ml, 5 μM test compound, 15 min, 37 °C
Protocol: (§2) Liver preparations (microsomal fractions) were obtained from BD Gentest (San Jose, Calif., US). Metabolic stability was assessed using the following assay conditions. […] The mixture was pre-incubated at 37° C. for 5 min and the enzymatic reaction was started by addition of 5 μM test compound. After 0 (control) and 15 minutes (min), the reactions were terminated by addition of […] (500 μl). The precipitated material was removed by centrifugation at 1200 g for 10 min. The supernatant was analysed by LC-MS/MS on a ThermoFinnigan LCQ Deca XP ion-trap mass spectrometer equipped with an atmospheric pressure chemical ionisation source. Calculation of %-compound remaining was as described by Kantharaj et al. 2003 ((Kantharaj E., Tuytelaars A, Proost P E A, Ongel Z, van […] (2003). Simultaneous measurement of drug metabolic stability and identification of metabolites using ion-trap mass spectrometry.

[4] = test system: Trichophyton mentagrophytes B70554; experiment: Antifungal activity in vitro (resazurin susceptibility screen), Inf. G; assay type: cell-based; details: Trichophyton mentagrophytes, B70554, Trichophyton mentagrophytes B70554; 27 °C, 7 days, resa time 24 hours; read-out: Inf. G pIC50 (converted)
Procedure, shortened: (§3)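 Each well was inoculated with 10^3 cfu of fungus onto dried, pre-spotted compound serial dilutions in RPMI-MOPS medium, with fungal growth read by resazurin. Growth was referenced to drug-free culture (100%) and medium-only (0%) controls on each plate.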

CYP3A4 = CYP3A4 (Homo sapiens, UniProt P08684); experiment: Cytochrome P450 inhibition, Protocol A, cDNA expressed proteins, fluorogenic substrates; assay type: in vitro ADME; details: % inhibition at 10 μM, cDNA expressed protein
Procedure, shortened: (§4)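 cDNA-expressed enzymes with fluorogenic substrates (three separate ones for CYP3A4) in sodium/potassium buffer pH 7.4 plus NADPH-generating system. Compounds at 1 nM to 10 μM final, prewarmed 5 min at 37° C, reaction started with NADP+, stopped, then fluorescence measured.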

[5] = test system: Aspergillus fumigatus B42928; experiment: Antifungal activity in vitro (resazurin susceptibility screen), Inf. E; assay type: cell-based; details: Aspergillus fumigatus B42928; 27 °C, 48 hours, resa time 17 hours; read-out: Inf. E pIC50 (converted)
Procedure, shortened: as §1

[6] = test system: Candida parapsilosis B66126; experiment: Antifungal activity in vitro (resazurin susceptibility screen), Inf. D; assay type: cell-based; details: Lodderomyces parapsilosis; Candida parapsilosis B66126; 37 °C, 24 hours, resa time 4 hours; read-out: Inf. D pIC50 (converted)
Procedure, shortened: as §3

[7] = Liver metabolic stability assay, mLM; assay type: in vitro ADME; details: mouse liver microsomes, 1 mg protein/ml, 5 μM test compound, 15 min, 37 °C
Protocol: as §2

CYP2D6 = CYP2D6 (Homo sapiens, UniProt P10635); experiment: Cytochrome P450 inhibition, Protocol A, cDNA expressed proteins, fluorogenic substrate; assay type: in vitro ADME; details: % inhibition at 10 μM; substrate AMMC; cDNA expressed protein
Procedure, shortened: as §4

CYP2C9 = CYP2C9 (Homo sapiens, UniProt P11712); experiment: as above; assay type: in vitro ADME; details: % inhibition at 10 μM; substrate MFC; cDNA expressed protein
Procedure, shortened: as §4

CYP1A2 = biological target: T1, CYP1A2 (Homo sapiens, UniProt P05177); experiment: as above; assay type: in vitro ADME; details: % inhibition at 10 μM; substrate CEC; cDNA expressed protein
T1 sequence (P05177 1-516): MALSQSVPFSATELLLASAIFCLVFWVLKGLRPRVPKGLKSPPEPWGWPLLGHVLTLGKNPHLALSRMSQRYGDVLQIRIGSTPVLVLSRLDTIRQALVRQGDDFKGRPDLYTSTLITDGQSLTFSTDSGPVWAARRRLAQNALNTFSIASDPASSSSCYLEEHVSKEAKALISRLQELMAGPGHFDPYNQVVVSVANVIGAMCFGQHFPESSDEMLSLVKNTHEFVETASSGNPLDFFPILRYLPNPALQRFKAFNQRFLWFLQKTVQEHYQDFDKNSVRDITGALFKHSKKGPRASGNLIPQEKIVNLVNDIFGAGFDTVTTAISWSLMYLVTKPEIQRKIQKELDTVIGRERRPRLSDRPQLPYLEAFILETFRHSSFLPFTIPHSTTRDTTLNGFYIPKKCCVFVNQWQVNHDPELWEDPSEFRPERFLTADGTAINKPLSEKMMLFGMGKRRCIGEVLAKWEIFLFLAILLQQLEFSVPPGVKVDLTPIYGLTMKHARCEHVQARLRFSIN
Procedure, shortened: as §4

[8] = test system: Trichophyton rubrum B68183; experiment: Antifungal activity in vitro (resazurin susceptibility screen), Inf. C; assay type: cell-based; details: Trichophyton rubrum B68183; 27 °C, 7 days, resa time 24 hours; read-out: Inf. C pIC50 (converted)
Procedure, shortened: as §1

[9] = Liver metabolic stability assay, hLM; assay type: in vitro ADME, human; details: human liver microsomes, 1 mg protein/ml, 5 μM test compound, 15 min, 37 °C
Microsporum canis B68128 = experiment: Antifungal activity in vitro (resazurin susceptibility screen), Inf. B; assay type: cell-based; details: Microsporum canis, B68128, Microsporum canis B68128; 27 °C, 9 days, resa time 24 hours; read-out: Inf. B pIC50 (converted)
Procedure, shortened: as §3

[10] = test system: Scedosporium prolificans IHEM21157; experiment: Antifungal activity in vitro (resazurin susceptibility screen), Inf. I; assay type: cell-based; details: Lomentospora prolificans, 37 °C, 48 hours, resa time 17 hours, read-out: Inf. I pIC50 (converted)
Protocol: (§5) The standard susceptibility screen was performed in 96-well plates (U-bottom, Greiner Bio-One). […] These serial dilutions (10 n1) were then spotted onto test-plates that could be stored in the dark at 4° C. for a maximum period of 2 weeks. […] The different fungal species/isolates (Table 3a) were cryopreserved and 1/1000 diluted in medium just prior to use. A standard inoculum of 200 μl containing 10^3 colony-forming unit (cfu) was then added to each well. A positive control (100% growth=fungal culture without antifungal) and a negative control (0% growth ═RPMI-MOPS medium) were included on each plate. […] [table]

Rhizopus oryzae IHEM5223 = experiment: Antifungal activity in vitro (resazurin susceptibility screen), Inf. J; assay type: cell-based; details: Rhizopus arrhizus, 37 °C, 24 hours, resa time 6 hours, read-out: Inf. J pIC50 (converted)
Protocol: as §5

[11] = test system: Scedosporium apiospermum IHEM3817; experiment: Antifungal activity in vitro (resazurin susceptibility screen), Inf. H; assay type: cell-based; details: 37 °C, 48 hours, resa time 17 hours, read-out: Inf. H pIC50 (converted)
Protocol: as §5

[12] = test system: Rhizomucor miehei IHEM13391; experiment: Antifungal activity in vitro (resazurin susceptibility screen), Inf. K; assay type: cell-based; details: 37 °C, 48 hours, resa time 17 hours, read-out: Inf. K pIC50 (converted)
Protocol: as §5

[13] = test system: Mucor circinelloides IHEM21105; experiment: Antifungal activity in vitro (resazurin susceptibility screen), Inf. L; assay type: cell-based; details: 27 °C, 48 hours, resa time 17 hours, read-out: Inf. L pIC50 (converted)
Protocol: as §5

Cytochrome P450 1A2 = biological target: T2, Cytochrome P450 1A2 (Homo sapiens, UniProt P05177); experiment: Human liver microsomal cytochrome P450 cocktail inhibition assay, Protocol C; details: human liver microsomes 0.2 mg/ml; probe phenacetin 80 microM
T2 sequence (P05177 1-516): T1 sequence (P05177 1-516)
Protocol: (§6) Probe substrates and final assay concentrations with the appropriate internal standard are outlined in Table 6a.
(§7) Assays were performed in 0.1 M phosphate buffer (pH 7.4), containing 0.2 mg/ml human liver microsomes (BD Gentest) and a probe substrate mix consisting of: phenacetin, tolbutamide, S-mephenyloin, dextromethorphan, amodiaquine and midazolam (Table 6a) and a range of test compound concentrations (0 to 30 micromolar) in a total volume of 100 microliters. After a 10 min pre-incubation at 37° C., the reaction was started with addition of NADPH at a final concentration of 1.0 mM. […] The samples are centrifuged for 10 min at 4° C. at 4000 rpm and 60 microliters supernatant is diluted with 180 microliters water. Each sample is injected onto a UPLC/MS system for the simultaneous measurement of the probe substrate metabolites and their associated deuterated internal standards. Percentage inhibition is calculated according to: %-inhibition=(1−Ri/R)*100, whereby Ri and R are the metabolite to internal standard peak area ratios in the presence and absence of inhibitor respectively.
(§8) Percentage inhibition data are plotted against the Log transformed test compound concentration and after curve fitting the IC50-value is determined.

Cytochrome P450 2C19 = Cytochrome P450 2C19 (Homo sapiens, UniProt P33261); experiment: as above; details: 2C19_S-Meph pIC50, human liver microsomes 0.2 mg/ml; probe S-mephenytoin 30 microM
Protocol: as §6, §7, §8

Cytochrome P450 2D6 = Cytochrome P450 2D6 (Homo sapiens, UniProt P10635); experiment: as above; details: 2D6_Dextro pIC50, human liver microsomes 0.2 mg/ml; probe dextromethorphan 3 microM
Protocol: as §6, §7, §8

Cytochrome P450 2C9 = Cytochrome P450 2C9 (Homo sapiens, UniProt P11712); experiment: as above; details: 2C9 Tolbut pIC50, human liver microsomes 0.2 mg/ml; probe tolbutamide 100 microM
Protocol: as §6, §7, §8

CYP3A4/5 = CYP3A4/5 (Homo sapiens, UniProt P08684); experiment: in vitro; details: liver microsomes, pH 7.4, probe midazolam (2 microM)
Protocol: as §6
After a 10 min pre-incubation at 37° C., the reaction was started with addition of NADPH at a final concentration of 1.0 mM. […] The samples are centrifuged for 10 min at 4° C. at 4000 rpm and 60 microliters supernatant is diluted with 180 microliters water. Each sample is injected onto a UPLC/MS system for the simultaneous measurement of the probe substrate metabolites and their associated deuterated internal standards.
as §8

CYP3A4, sequence (P08684 whole entry): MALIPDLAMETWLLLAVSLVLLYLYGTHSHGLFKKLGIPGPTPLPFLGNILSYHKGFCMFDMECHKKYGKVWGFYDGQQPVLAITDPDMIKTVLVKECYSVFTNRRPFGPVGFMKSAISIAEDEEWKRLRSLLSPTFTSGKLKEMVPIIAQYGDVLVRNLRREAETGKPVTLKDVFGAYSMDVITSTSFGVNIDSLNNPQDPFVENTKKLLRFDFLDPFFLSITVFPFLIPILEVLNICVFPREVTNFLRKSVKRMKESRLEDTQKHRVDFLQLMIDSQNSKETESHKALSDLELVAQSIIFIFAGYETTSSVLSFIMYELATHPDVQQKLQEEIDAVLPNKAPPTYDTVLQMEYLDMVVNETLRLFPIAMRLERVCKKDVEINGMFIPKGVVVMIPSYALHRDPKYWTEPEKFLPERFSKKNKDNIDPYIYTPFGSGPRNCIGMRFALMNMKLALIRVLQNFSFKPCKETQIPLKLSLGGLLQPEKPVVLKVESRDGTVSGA
Cytochrome P450 2C19, sequence (P33261 whole entry): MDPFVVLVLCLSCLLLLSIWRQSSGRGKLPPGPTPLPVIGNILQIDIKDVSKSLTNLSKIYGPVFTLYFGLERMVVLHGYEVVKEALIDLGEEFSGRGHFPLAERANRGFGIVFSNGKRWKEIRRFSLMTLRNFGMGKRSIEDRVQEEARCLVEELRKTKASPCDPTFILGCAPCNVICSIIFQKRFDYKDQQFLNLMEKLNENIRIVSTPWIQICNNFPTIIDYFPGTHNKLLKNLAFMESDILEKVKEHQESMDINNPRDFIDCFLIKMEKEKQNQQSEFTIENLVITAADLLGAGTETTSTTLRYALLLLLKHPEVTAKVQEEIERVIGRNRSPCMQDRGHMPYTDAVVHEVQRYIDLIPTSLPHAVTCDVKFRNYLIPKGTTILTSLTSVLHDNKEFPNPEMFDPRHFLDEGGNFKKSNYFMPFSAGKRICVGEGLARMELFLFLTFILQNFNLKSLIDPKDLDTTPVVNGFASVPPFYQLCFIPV
CYP2C9, sequence (P11712 whole entry): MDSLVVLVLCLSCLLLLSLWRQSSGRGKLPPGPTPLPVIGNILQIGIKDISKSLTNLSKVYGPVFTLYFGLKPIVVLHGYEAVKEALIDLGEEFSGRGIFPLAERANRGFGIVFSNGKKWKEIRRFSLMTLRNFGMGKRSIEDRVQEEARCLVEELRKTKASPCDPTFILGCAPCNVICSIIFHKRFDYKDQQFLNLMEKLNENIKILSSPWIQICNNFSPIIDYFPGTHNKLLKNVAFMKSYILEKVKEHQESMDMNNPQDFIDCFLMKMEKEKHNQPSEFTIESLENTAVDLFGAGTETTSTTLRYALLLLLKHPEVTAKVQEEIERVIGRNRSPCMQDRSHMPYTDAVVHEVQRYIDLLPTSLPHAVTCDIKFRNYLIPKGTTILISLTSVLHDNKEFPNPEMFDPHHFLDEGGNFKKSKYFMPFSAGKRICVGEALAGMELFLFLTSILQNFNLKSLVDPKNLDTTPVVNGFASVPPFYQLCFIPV
Cytochrome P450 2C9, sequence (P11712 whole entry): as above
Cytochrome P450 2D6, sequence (P10635 whole entry): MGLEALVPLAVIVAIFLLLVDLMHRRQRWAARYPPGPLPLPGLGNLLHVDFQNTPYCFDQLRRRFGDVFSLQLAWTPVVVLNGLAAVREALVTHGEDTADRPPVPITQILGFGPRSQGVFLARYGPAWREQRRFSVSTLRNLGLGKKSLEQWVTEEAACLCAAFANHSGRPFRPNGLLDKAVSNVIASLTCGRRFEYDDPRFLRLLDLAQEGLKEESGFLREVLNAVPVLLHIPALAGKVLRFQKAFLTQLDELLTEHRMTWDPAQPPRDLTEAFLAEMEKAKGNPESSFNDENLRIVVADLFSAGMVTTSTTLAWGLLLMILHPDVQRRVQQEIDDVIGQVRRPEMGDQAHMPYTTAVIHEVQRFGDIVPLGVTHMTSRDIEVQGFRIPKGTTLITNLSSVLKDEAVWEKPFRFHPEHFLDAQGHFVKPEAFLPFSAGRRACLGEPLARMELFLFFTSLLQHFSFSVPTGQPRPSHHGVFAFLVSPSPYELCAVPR
CYP2D6, sequence (P10635 whole entry): as above
CYP3A4/5, sequence (P08684 2-503): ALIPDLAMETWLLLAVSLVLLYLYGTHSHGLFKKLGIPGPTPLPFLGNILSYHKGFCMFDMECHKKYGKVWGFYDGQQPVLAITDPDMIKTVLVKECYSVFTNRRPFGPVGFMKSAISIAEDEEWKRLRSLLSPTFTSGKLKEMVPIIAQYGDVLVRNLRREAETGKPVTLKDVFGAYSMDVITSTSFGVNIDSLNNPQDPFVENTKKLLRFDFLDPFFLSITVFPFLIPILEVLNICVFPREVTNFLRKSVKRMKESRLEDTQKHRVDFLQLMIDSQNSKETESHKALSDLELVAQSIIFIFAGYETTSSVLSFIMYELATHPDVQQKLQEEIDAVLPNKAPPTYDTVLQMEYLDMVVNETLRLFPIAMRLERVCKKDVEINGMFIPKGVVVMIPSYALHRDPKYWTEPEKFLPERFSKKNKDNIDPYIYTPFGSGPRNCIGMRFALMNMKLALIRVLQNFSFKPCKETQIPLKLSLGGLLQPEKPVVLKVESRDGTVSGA

IC50 [1]	IC50 [2]	%-compound metabolised Met_gpLM [3]	IC50 [4]	IC50 [5]	melting point	IC50 [6]	%-compound metabolised Met_mLM [7]	IC50 [8]	%-compound metabolised_Met_hLM [9]	IC50 (Microsporum canis B68128)	Compound	further results
1.26 µM	10 µM	44%	3.98 µM	1.58 µM	183.6 to 186.7 °C	> 63.1 µM	45%	0.0794 µM	19%	0.631 µM	CC(=O)c1ccc(C2=NCc3cc(Cl)cc(Cl)c3-n3cccc32)cc1 [Compound 26, 1-[4-(8,10-dichloro-6H-pyrrolo[1,2-a][1,4]benzodiazepin-4-yl)phenyl]-ethanone]	hCYP3A4_BFC_Pct_Inh (CYP3A4; substrate BFC): 33%; hCYP3A4_BQ_Pct_Inh (CYP3A4; substrate BQ): 32%; hCYP3A4_DBF_Pct_Inh (CYP3A4; substrate DBF): 55%; hCYP2D6_AMMC_Pct_Inh (CYP2D6): 74%; hCYP2C9_MFC_Pct_Inh (CYP2C9): 69%; hCYP1A2_CEC_Pct_Inh (CYP1A2): 34%
> 63.1 µM	> 63.1 µM	21%	2.51 µM	> 63.1 µM	218.5 to 219.9 °C	> 63.1 µM	41%	2 µM	2%	1.26 µM	CS(=O)(=O)c1ccc(C2=NCc3c(Cl)cccc3-n3cccc32)cc1 [Compound 28, 7-chloro-4-[4-(methylsulfonyl)phenyl]-6H-pyrrolo[1,2-a][1,4]benzodiazepine]	IC50 [10]: 7.94 µM; IC50 (Rhizopus oryzae IHEM5223): > 63.1 µM; IC50 [11]: > 63.1 µM; IC50 [12]: > 63.1 µM; IC50 [13]: > 63.1 µM
											Br.CC(=O)c1ccc(C2NCc3c(Cl)cccc3-n3cccc32)cc1 (centres unmarked) [drawing 96]	1A2_Phen pIC50 (Cytochrome P450 1A2): <5.0; pIC50 (Cytochrome P450 2C19): 5.90; pIC50 (Cytochrome P450 2D6): 5.70; pIC50 (Cytochrome P450 2C9): 5.60; IC50 at 10 min (CYP3A4/5): 5.01 µM

From patent US9040523B2, “Antifungal 5,6-dihydro-4H-pyrrolo[1,2-α][1,4]-benzodiazepines and 6H-pyrrolo[1,2-α][1,4]benzodiazepines substituted with benzene derivatives” (JANSSEN PHARMACEUTICA NV, priority 2010, dated 2015)
